Like-named read-outs stand apart in the source and are kept apart here. Some results are limits rather than exact numbers.

The assay has as its target KRAS G12D (Homo sapiens, UniProt P01116, G12D). The experiment in a line: KRAS G12D Probe Displacement Assay (TR-FRET, GDP-loaded). It counts as binding. The text has this: The synthetic routes of probe 1 and 2, which have been disclosed in PCT/CN2022/070676, are hereby incorporated herein.
For orientation: Time-resolved FRET reads energy transfer from a long-lived donor to a nearby acceptor.

Setting [1] is: KRAS G12D, read-out: KRAS^G12D Probe Displacement Assay IC50.

Chain of KRAS G12D (P01116 1-188 isoform P01116-2 G12D): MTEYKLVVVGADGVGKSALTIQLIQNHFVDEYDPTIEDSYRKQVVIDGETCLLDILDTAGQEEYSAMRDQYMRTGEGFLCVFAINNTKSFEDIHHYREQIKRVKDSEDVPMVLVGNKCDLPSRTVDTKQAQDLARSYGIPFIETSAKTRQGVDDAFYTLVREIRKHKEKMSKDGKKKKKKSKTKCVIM

With `COC1CN(CC2(COc3nc4c5c(nc(-c6cc(N)cc(C)c6C(F)(F)F)c(F)c5n3)OCC[C@@H]3[C@@H]5CC[C@H](CN43)N5)CC2(F)F)C1` (single isomer, unassigned) [Example 21], for the setting “KRAS^G12D Probe Displacement Assay IC50, KRAS G12D”, the IC50 – broadly, the concentration at which inhibition is half-maximal – was in the range of 0.3 to 3 nM. For the compound `Cc1cc(N)cc(-c2nc3c4c(nc(OCC5(CN6CCCC6CO)CC5)nc4c2F)N2C[C@H]4CC[C@H](N4)[C@H]2CCO3)c1C(F)(F)F` (single isomer, unassigned) [Example 125], the IC50 under setting [1] is less than 0.3 nM. For the compound `Cc1cc(N)cc(-c2nc3c4c(nc(O[C@@H]5CCOC[C@H]5N(C)C)nc4c2F)N2C[C@H]4CC[C@H](N4)[C@H]2CCO3)c1C(F)(F)F` [Example 7], the IC50 under setting [1] lay within 3 to 1000 nM. Turning to `Cc1cc(N)cc(-c2nc3c4c(nc(OCC5(C)COCC5N(C)C)nc4c2F)N2C[C@H]4CC[C@H](N4)[C@H]2CCO3)c1C(F)(F)F` (mixture of isomers) [Example 15, 4-((((6aR,7S,10R)-2-(5-amino-3-methyl-2-(trifluoromethyl)phenyl)-1-fluoro-5,6,6a,7,8,9,10,11-octahydro-4-oxa-3,11a,12,14,15-pentaaza-7,10-methanocyclohepta[4,5]cycloocta [1,2,3-de]naphthalen-13-yl)oxy)methyl)-N,N,4-trimethyltetrahydrofuran-3-amine], the IC50 under setting [1] lay within 0.3 to 3 nM. On the same count and under the same terms, under `CO[C@@H]1C[C@@H](C(C)Oc2nc3c4c(nc(-c5cc(N)cc(C)c5C(F)(F)F)c(F)c4n2)OCC[C@@H]2[C@@H]4CC[C@H](CN32)N4)N(C)C1` (single isomer, unassigned) [Example 145] stands 0.3 to 3 nM; under `Cc1cc(N)cc(-c2nc3c4c(nc(OC[C@H]5COC[C@@H]5N(C)C)nc4c2F)N2C[C@H]4CC[C@H](N4)[C@H]2CCO3)c1C(F)(F)F` [Example 14, (3R,4R)-4-((((6aR,7S,10R)-2-(5-amino-3-methyl-2-(trifluoromethyl)phenyl)-1-fluoro-5,6,6a,7,8,9,10,11-octahydro-4-oxa-3,11a,12,14,15-pentaaza-7,10-methanocyclohepta[4,5]cycloocta [1,2,3-de]naphthalen-13-yl)oxy)methyl)-N,N-dimethyltetrahydrofuran-3-amine], 3 to 1000 nM; under `Cc1cc(N)cc(-c2nc3c4c(nc(O[C@H]5COCC[C@H]5N(C)C)nc4c2F)N2C[C@H]4CC[C@H](N4)[C@H]2CCO3)c1C(F)(F)F` [Example 12, (3R,4R)-3-(((6aR,7S,10R)-2-(5-amino-3-methyl-2-(trifluoromethyl)phenyl)-1-fluoro-5,6,6a,7,8,9,10,11-octahydro-4-oxa-3,11a,12,14,15-pentaaza-7,10-methanocyclohepta[4,5]cycloocta [1,2,3-de]naphthalen-13-yl)oxy)-N,N-dimethyltetrahydro-2H-pyran-4-amine], 3 to 1000 nM. Regarding `CO[C@H]1CCN(C)[C@@H]1C(C)Oc1nc2c3c(nc(-c4cc(N)cc(C)c4C(F)(F)F)c(F)c3n1)OCC[C@@H]1[C@@H]3CC[C@H](CN21)N3` (single isomer, unassigned) [Example 76], under setting [1], the IC50 lay in the range of 0.3 to 3 nM. Still for that read-out and setting: in the case of `Cc1cc(N)cc(-c2nc3c4c(nc(O[C@H]5COC[C@H]5N(C)C)nc4c2F)N2C[C@H]4CC[C@H](N4)[C@H]2CCO3)c1C(F)(F)F` [Example 39, (3R,4R)-4-(((6aR,7S,10R)-2-(5-amino-3-methyl-2-(trifluoromethyl)phenyl)-1-fluoro-5,6,6a,7,8,9,10,11-octahydro-4-oxa-3,11a,12,14,15-pentaaza-7,10-methanocyclohepta[4,5]cycloocta [1,2,3-de]naphthalen-13-yl)oxy)-N,N-dimethyltetrahydrofuran-3-amine] it was 3 to 1000 nM; in that of `Cc1cc(N)cc(-c2nc3c4c(nc(O[C@H]5COC[C@@H]5N(C)C)nc4c2F)N2C[C@H]4CC[C@H](N4)[C@H]2CCO3)c1C(F)(F)F` [Example 40, (3S,4R)-4-(((6aR,7S,10R)-2-(5-amino-3-methyl-2-(trifluoromethyl)phenyl)-1-fluoro-5,6,6a,7,8,9,10,11-octahydro-4-oxa-3,11a,12,14,15-pentaaza-7,10-methanocyclohepta[4,5]cycloocta [1,2,3-de]naphthalen-13-yl)oxy)-N,N-dimethyltetrahydrofuran-3-amine], 3 to 1000 nM.

The record behind these values is patent US20260347373A1, “HETEROCYCLIC COMPOUNDS, COMPOSITIONS THEREOF, AND METHODS OF TREATMENT THEREWITH” (BeOne Medicines I GmbH, priority 2023, published 2026).
